According to BindingDB's records for doi:10.1016/j.bmcl.2009.02.015 (Pfizer, 2009):

The compounds below were run against Cyclin-dependent kinase 2 (Homo sapiens) (UniProt P24941) (assay: Inhibition of CDK2).

SMILES | IC50 [nM]
COc1ccc2sc3c(c2c1)SCCNC3=O | 150
COc1ccc2sc3c(c2c1)NCCNC3=O [3-Methoxy-5,6,7,8-tetrahydro-10-thia-5,8-diaza-benzo[a]azulen-9-one] | 160
COc1ccc2sc3c(c2c1)CCCNC3=O [3-Methoxy-5,6,7,8-tetrahydro-10-thia-8-aza-benzo[a]azulen-9-one] | 360
COC(=O)COc1ccc2sc3c(c2c1)NC[C@@H](C)NC3=O [((R)-7-Methyl-9-oxo-6,7,8,9-tetrahydro-5H-10-thia-5,8-diaza-benzo[a]azulen-3-yloxy)-acetic acid methyl ester] | 3090
COCCOc1ccc2sc3c(c2c1)NC[C@@H](C)NC3=O [(R)-3-(2-Methoxy-ethoxy)-7-methyl-5,6,7,8-tetrahydro-10-thia-5,8-diaza-benzo[a]azulen-9-one] | 81
COc1cccc(COc2ccc3sc4c(c3c2)NC[C@@H](C)NC4=O)c1 [(R)-3-(3-Methoxy-benzyloxy)-7-methyl-5,6,7,8-tetrahydro-10-thia-5,8-diaza-benzo[a]azulen-9-one] | 64
C[C@@H]1CNc2c(sc3ccc(OCC4CC4)cc23)C(=O)N1 [(R)-3-Cyclopropylmethoxy-7-methyl-5,6,7,8-tetrahydro-10-thia-5,8-diaza-benzo[a]azulen-9-one] | 52
C[C@@H]1CNc2c(sc3ccc(O)cc23)C(=O)N1 [(R)-3-Hydroxy-7-methyl-5,6,7,8-tetrahydro-10-thia-5,8-diaza-benzo[a]azulen-9-one] | 26
CC(C)COc1ccc2sc3c(c2c1)NC[C@@H](C)NC3=O [(R)-3-Isobutoxy-7-methyl-5,6,7,8-tetrahydro-10-thia-5,8-diaza-benzo[a]azulen-9-one] | 11
CCCNC[C@@H]1CNc2c(sc3ccc(OC)cc23)C(=O)N1 [(R)-3-Methoxy-7-propylaminomethyl-5,6,7,8-tetrahydro-10-thia-5,8-diaza-benzo[a]azulen-9-one] | 2600
COc1ccc2sc3c(c2c1)NC[C@@H](CNCc1ccccc1)NC3=O [(R)-7-(Benzylamino-methyl)-3-methoxy-5,6,7,8-tetrahydro-10-thia-5,8-diaza-benzo[a]azulen-9-one] | 2700
COc1ccc2sc3c(c2c1)NC[C@@H](CN)NC3=O [(R)-7-Aminomethyl-3-methoxy-5,6,7,8-tetrahydro-10-thia-5,8-diaza-benzo[a]azulen-9-one] | 146
CCNC[C@@H]1CNc2c(sc3ccc(OC)cc23)C(=O)N1 [(R)-7-Ethylaminomethyl-3-methoxy-5,6,7,8-tetrahydro-10-thia-5,8-diaza-benzo[a]azulen-9-one] | 3100
COc1ccc2sc3c(c2c1)NC[C@@H](CO)NC3=O [(S)-7-Hydroxymethyl-3-methoxy-5,6,7,8-tetrahydro-10-thia-5,8-diaza-benzo[a]azulen-9-one] | 25
COc1ccc2sc3c(c2c1)NC[C@@H](CN(C)Cc1ccccc1)NC3=O [(S)-7-[(Benzyl-methyl-amino)-methyl]-3-methoxy-5,6,7,8-tetrahydro-10-thia-5,8-diaza-benzo[a]azulen-9-one] | 3170
